≈ marks a conversion by molar mass, not a printed value.
What was measured:
Test in all cases: ≥ marks a high value that may be exact or a test limit, other limits are often not marked, values filed in µg/mL are converted to µM
Bacillus cereus = system: Bacillus cereus
Escherichia coli = system: Escherichia coli
Staphylococcus aureus = system: Staphylococcus aureus
[1] = system: Escherichia coli ATCC 25922
[2] = system: Candida albicans ATCC 2002
[3] = system: Staphylococcus aureus ATCC 25923
Bacillus subtilis = system: Bacillus subtilis
[4] = system: Acinetobacter baumannii ATCC 19606
Acinetobacter baumannii = system: Acinetobacter baumannii
[5] = system: Klebsiella pneumoniae ATCC 700603
[6] = system: Pseudomonas aeruginosa ATCC 9027
[7] = system: Enterococcus faecalis ATCC 29212
[8] = system: Staphylococcus epidermidis ATCC 12228
[9] = system: Salmonella enterica subsp. enterica serovar Typhimurium C77-31
[10] = system: Staphylococcus aureus ATCC 29213
Escherichia coli UB1005 = system: Escherichia coli UB1005
Pseudomonas aeruginosa = system: Pseudomonas aeruginosa

Row | Compound | MIC (Bacillus cereus) [µM] | MIC (Escherichia coli) [µM] | MIC [1] [µM] | MIC [3] [µM] | MIC (Acinetobacter baumannii) [µM] | also measured
1 | CC[C@H](C)[C@H](NC(=O)[C@@H](NC(=O)[C@H](CS)NC(=O)[C@H](Cc1ccc(O)cc1)NC(=O)[C@@H](NC(=O)[C@H](C)NC(=O)[C@@H]1CCCN1C(=O)[C@H](Cc1ccccc1)NC(=O)[C@@H](NC(=O)[C@H](CCCCN)NC(=O)[C@H](CO)NC(=O)[C@H](C)NC(=O)[C@H](CC(C)C)NC(=O)[C@H](CCCCN)NC(=O)CNC(=O)[C@H](CC(C)C)NC(=O)[C@H](C)N)C(C)C)C(C)C)[C@@H](C)O)C(=O)N[C@@H](CO)C(=O)N[C@@H](CCCN=C(N)N)C(=O)N[C@@H](CCCCN)C(=O)O [ALGKLASKVFPAVYCTISRK] | ≥ 119 | 59.5 (≈ 128 µg/mL) |  |  |  | 
2 | CC(C)C[C@H](NC(=O)[C@H](CCCCN)NC(=O)[C@H](Cc1ccccc1)NC(=O)[C@@H](NC(=O)[C@@H](NC(=O)CNC(=O)[C@H](CC(C)C)NC(=O)[C@@H](N)Cc1ccccc1)C(C)C)C(C)C)C(=O)N[C@H](C(=O)N[C@@H](CO)C(=O)N[C@@H](CCCCN)C(=O)N[C@H](C(=O)N[C@@H](Cc1ccccc1)C(=O)N1CCC[C@H]1C(=O)N[C@@H](C)C(=O)N[C@H](C(=O)N[C@@H](Cc1ccccc1)C(=O)NCC(=O)N[C@@H](CCCCN)C(=O)N[C@H](C(=O)O)C(C)C)C(C)C)C(C)C)C(C)C [FLGVVFKLVSKVFPAVFGKV] | 7.33 (≈ 16 µg/mL) | 117 (≈ 256 µg/mL) |  |  |  | MIC (Staphylococcus aureus): 3.67 µM (≈ 8 µg/mL)
3 | CC[C@H](C)[C@H](NC(=O)[C@H](C)NC(=O)[C@H](CCCN=C(N)N)NC(=O)[C@H](Cc1ccc(O)cc1)NC(=O)[C@H](CC(C)C)NC(=O)[C@H](CC(N)=O)NC(=O)[C@H](Cc1ccc(O)cc1)NC(=O)CNC(=O)[C@H](C)NC(=O)[C@@H](NC(=O)[C@@H](NC(=O)[C@@H](NC(=O)[C@H](CCCN=C(N)N)NC(=O)[C@@H](NC(=O)[C@@H](NC(=O)[C@@H](NC(=O)[C@@H]1CCCN1C(=O)[C@H](Cc1c[nH]c2ccccc12)NC(=O)[C@@H](N)Cc1ccccc1)C(C)C)C(C)C)[C@@H](C)CC)[C@@H](C)O)C(C)C)C(C)C)C(=O)N[C@@H](CCCCN)C(=O)N[C@@H](CCCCN)C(=O)N[C@@H](CCCCN)C(=O)O [FWPVVIRTVVAGYNLYRAIKKK] |  |  | 10.7 (≈ 28.1 µg/mL) | 0.447 (≈ 1.17 µg/mL) |  | MIC [2]: 0.335 µM (≈ 0.879 µg/mL); MIC (Bacillus subtilis): 1.34 µM (≈ 3.52 µg/mL)
4 | CC(C)C[C@H](NC(=O)CNC(=O)[C@H](Cc1ccccc1)NC(=O)[C@H](CC(C)C)NC(=O)[C@H](C)NC(=O)CN)C(=O)N[C@@H](C)C(=O)N[C@@H](CO)C(=O)N[C@@H](CCCCN)C(=O)N[C@H](C(=O)N[C@@H](Cc1ccccc1)C(=O)N1CCC[C@H]1C(=O)N[C@@H](C)C(=O)N[C@H](C(=O)N[C@@H](Cc1ccccc1)C(=O)NCC(=O)N[C@@H](C)C(=O)N[C@@H](Cc1ccccc1)C(=O)N[C@@H](CCCCN)C(=O)N[C@@H](CCCCN)C(=O)O)C(C)C)C(C)C [GALFGLASKVFPAVFGAFKK] | ≥ 125 | 125 (≈ 256 µg/mL) |  |  |  | 
5 | CC[C@H](C)[C@H](NC(=O)[C@H](CC(C)C)NC(=O)CNC(=O)[C@@H](NC(=O)[C@@H](NC(=O)[C@H](C)NC(=O)[C@@H]1CCCN1C(=O)[C@@H](NC(=O)[C@@H](NC(=O)[C@H](CCCCN)NC(=O)[C@H](CO)NC(=O)[C@H](C)NC(=O)[C@H](CC(C)C)NC(=O)[C@H](CO)NC(=O)[C@H](Cc1ccccc1)NC(=O)[C@H](CC(C)C)NC(=O)[C@H](C)NC(=O)CN)C(C)C)C(C)C)C(C)C)[C@@H](C)CC)C(=O)N[C@@H](CCCCN)C(=O)N[C@@H](CCCCN)C(=O)O [GALFSLASKVVPAVIGLIKK] | ≥ 127 | > 127 |  |  |  | 
6 | CC[C@H](C)[C@H](NC(=O)[C@H](C)NC(=O)[C@H](CO)NC(=O)[C@H](Cc1ccccc1)NC(=O)[C@@H](NC(=O)[C@H](CO)NC(=O)[C@@H]1CCCN1C(=O)[C@@H](NC(=O)[C@@H](NC(=O)[C@H](CCCCN)NC(=O)[C@H](CO)NC(=O)[C@H](C)NC(=O)[C@@H](NC(=O)CNC(=O)[C@H](Cc1ccccc1)NC(=O)[C@@H](NC(=O)[C@H](C)NC(=O)CN)C(C)C)C(C)C)C(C)C)C(C)C)C(C)C)C(=O)N[C@@H](CCCCN)C(=O)N[C@@H](CCCCN)C(=O)O [GAVFGVASKVVPSVFSAIKK] | ≥ 129 | > 129 |  |  |  | 
7 | CC[C@H](C)[C@H](NC(=O)[C@H](CCCN=C(N)N)NC(=O)[C@@H](NC(=O)[C@@H](NC(=O)[C@@H]1CCCN1C(=O)[C@@H](NC(=O)[C@@H](NC(=O)[C@@H](NC(=O)[C@@H]1CCCN1C(=O)CNC(=O)[C@H](Cc1ccc(O)cc1)NC(=O)[C@H](CCCCN)NC(=O)[C@H](CCCCN)NC(=O)[C@H](Cc1c[nH]c2ccccc12)NC(=O)[C@H](C)NC(=O)[C@H](CCCN=C(N)N)NC(=O)[C@H](CC(C)C)NC(=O)[C@@H](NC(=O)[C@H](CCCCN)NC(=O)[C@H](CCCN=C(N)N)NC(=O)CNC(=O)[C@H](CC(C)C)NC(=O)[C@H](CCCCN)NC(=O)[C@H](CCCN=C(N)N)NC(=O)[C@H](CC(C)C)NC(=O)CNC(=O)CN)[C@@H](C)CC)[C@@H](C)CC)[C@@H](C)CC)C(C)C)[C@@H](C)CC)[C@@H](C)CC)C(=O)O [GGLRKLGRKILRAWKKYGPIIVPIIRI] |  |  |  |  | 6.42 (≈ 20 µg/mL) | MIC [4]: 3.21 µM (≈ 10 µg/mL)
8 | CC[C@H](C)[C@H](NC(=O)[C@H](CC(=O)O)NC(=O)[C@H](CCCCN)NC(=O)[C@@H](NC(=O)[C@H](CC(C)C)NC(=O)[C@H](CO)NC(=O)[C@H](CCSC)NC(=O)[C@H](CC(C)C)NC(=O)CN)C(C)C)C(=O)N[C@@H](C)C(=O)N[C@@H](CCCCN)C(=O)N[C@@H](CC(C)C)C(=O)N[C@@H](C)C(=O)N[C@@H](C)C(=O)N[C@@H](CCCCN)C(=O)N[C@@H](CCC(N)=O)C(=O)NCC(=O)N[C@@H](C)C(=O)N[C@@H](CCCCN)C(=O)N[C@@H](CCC(N)=O)C(=O)O [GLMSLVKDIAKLAAKQGAKQ] | ≥ 124 | 124 (≈ 256 µg/mL) |  |  |  | 
9 | CC[C@H](C)[C@H](N)C(=O)N[C@H](C(=O)N[C@@H](CCCCN)C(=O)N[C@@H](Cc1c[nH]c2ccccc12)C(=O)N[C@@H](CC(C)C)C(=O)N[C@@H](CC(C)C)C(=O)N[C@@H](CC(N)=O)C(=O)N[C@@H](C)C(=O)N[C@H](C(=O)N[C@@H](CCCCN)C(=O)N[C@@H](CCCCN)C(=O)NCC(=O)N[C@@H](Cc1ccccc1)C(=O)N[C@@H](CCCCN)C(=O)N[C@@H](CC(C)C)C(=O)O)[C@@H](C)CC)[C@@H](C)O [ITKWLLNAIKKGFKL] |  |  | 64 (≈ 113 µg/mL) | 64 (≈ 113 µg/mL) | ≥ 32 | MIC [5]: 64 µM (≈ 113 µg/mL); MIC [6]: 64 µM (≈ 113 µg/mL)
10 | CSCC[C@H](NC(=O)[C@H](CC(C)C)NC(=O)[C@H](CCCCN)NC(=O)CNC(=O)[C@H](C)NC(=O)[C@H](C)NC(=O)[C@H](CCCN=C(N)N)NC(=O)[C@H](Cc1ccccc1)NC(=O)[C@H](CC(C)C)NC(=O)[C@@H](NC(=O)[C@H](Cc1c[nH]c2ccccc12)NC(=O)[C@@H](NC(=O)[C@@H](N)CCCCN)C(C)C)[C@@H](C)O)C(=O)N[C@@H](C)C(=O)N[C@@H](CCCCN)C(N)=O [KVWTLFRAAGKLMAK] |  |  | > 25 | > 25 | 25 (≈ 43 µg/mL) | MIC [5]: > 25 µM; MIC [6]: > 25 µM
11 | CC[C@H](C)[C@H](NC(=O)[C@H](CCCCN)NC(=O)[C@H](CCCCN)NC(=O)[C@H](CC(C)C)NC(=O)[C@H](CCCN=C(N)N)NC(=O)[C@@H]1CSSC[C@H](NC(=O)[C@H](CCCN=C(N)N)NC(=O)[C@H](CC(C)C)NC(=O)[C@H](CCCN=C(N)N)NC(=O)[C@H](CCCN=C(N)N)NC(=O)[C@H](Cc2ccccc2)NC(=O)[C@@H](N)CCCN=C(N)N)C(=O)N[C@@H](CCCCN)C(=O)N[C@@H]([C@@H](C)O)C(=O)N[C@@H](CCCN=C(N)N)C(=O)N1)C(N)=O [RFRRLRCKTRCRLKKI] |  |  |  |  |  | MIC [7]: > 128 µM; MIC [8]: > 128 µM; MIC [9]: ≥ 128 µM; MIC [10]: > 128 µM; MIC (Escherichia coli UB1005): ≥ 128 µM
12 | CC(C)[C@H](NC(=O)[C@H](CCCN=C(N)N)NC(=O)[C@H](Cc1c[nH]c2ccccc12)NC(=O)[C@H](CCCN=C(N)N)NC(=O)[C@@H](NC(=O)[C@H](CCCN=C(N)N)NC(=O)[C@H](Cc1c[nH]c2ccccc12)NC(=O)[C@H](CCCN=C(N)N)NC(=O)[C@@H](NC(=O)[C@H](CCCN=C(N)N)NC(=O)[C@@H](N)Cc1c[nH]c2ccccc12)C(C)C)C(C)C)C(=O)N[C@@H](CCCN=C(N)N)C(N)=O [WRVRWRVRWRVR] |  | 2 (≈ 3.62 µg/mL) | 4 (≈ 7.24 µg/mL) | 2 (≈ 3.62 µg/mL) | 2 (≈ 3.62 µg/mL) | MIC [8]: 2 µM (≈ 3.62 µg/mL); MIC [9]: 4 µM (≈ 7.24 µg/mL); MIC (Pseudomonas aeruginosa): 4 µM (≈ 7.24 µg/mL); MIC [10]: 1 µM (≈ 1.81 µg/mL); MIC (Escherichia coli UB1005): 2 µM (≈ 3.62 µg/mL); MIC (Staphylococcus aureus): 1 µM (≈ 1.81 µg/mL)

Reference: DBAASP
